Measurements taken from patent US20090227555A2, “Novel Pyridine Compounds” (priority 2005, published 2009).
pIC50: −log10 of the molar value. Where two headings read alike, the source gives them in different places.

Target: T1, P2Y12 receptor (Homo sapiens, UniProt Q9H244)
T1 construct: expressed in transfected cells; host or cells: CHO cells (membrane preparation)
Test: Functional inhibition of 2-Me-S-ADP induced P2Y12 signalling (35S-GTPγS, cell membranes from P2Y12 transfected CHO-cells)
Assay type: biochemical
Excerpt: Functional inhibition of—the P2Y12 receptor can be measured by in vitro assays using cell membranes from P2Y12 transfected CHO-cells. Inhibition of platelet aggregation as a result of P2Y12 antagonism is best measured by ADP-induced aggregation of washed human platelets, activation of the platelet fibrinogen receptor (GPIIb/IIIa), or aggregation in whole blood via residual platelet counting. Detailed methodology is indicated below.
Functional inhibition of 2-Me-S-ADP induced P2Y12 signalling: 5 μg of membranes were diluted in 200 μl of 200 mM NaCl, 1 mM MgCl2, 50 mM HEPES (pH 7.4), 0.01% BSA, 30 μg/ml saponin and 10 μM GDP. To this was added an EC80 concentration of agonist (2-methyl-thio-adenosine diphosphate), the required concentration of test compound and 0.1 μCi ^35S-GTPγS. The reaction was allowed to proceed at 30° C. for 45 min. Samples were then transferred on to GF/B filters using a cell harvester and washed with wash buffer (50 mM Tris (pH 7.4), 5 mM MgCl2, 50 mM NaCl). Filters were then covered with scintilant and counted for the amount of ^35S-GTPγS retained by the filter. Maximum activity was that determined in the presence of the agonist and minimum activity in the absence of the agonist following subtraction of the value determined for non-specific activity.

T1 sequence (Q9H244 whole entry): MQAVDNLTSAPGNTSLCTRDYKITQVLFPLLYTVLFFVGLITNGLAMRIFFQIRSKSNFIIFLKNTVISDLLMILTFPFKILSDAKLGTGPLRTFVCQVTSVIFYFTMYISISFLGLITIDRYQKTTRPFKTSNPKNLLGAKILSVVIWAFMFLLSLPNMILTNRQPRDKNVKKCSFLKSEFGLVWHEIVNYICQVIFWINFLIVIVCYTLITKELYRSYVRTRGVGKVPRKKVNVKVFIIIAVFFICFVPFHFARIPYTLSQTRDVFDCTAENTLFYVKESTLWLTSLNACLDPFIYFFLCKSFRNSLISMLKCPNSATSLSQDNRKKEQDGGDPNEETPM

| pIC50 (5 μg membranes, EC80 concentration of agonist 2-methyl-thio-adenosine diphosphate, 35S-GTPγS, 30° C., 45 min, read-out: IC50) | SMILES | pIC50 |
| --- | --- | --- |
| – | CC(C)OC(=O)c1cnc(N2CCN(C(=O)NS(=O)(=O)c3ccc(Cl)s3)CC2)c(Cl)c1 [Example 18, Isopropyl 5-chloro-6-[4-({[(5-chloro-2-thienyl)sulfonyl]amino}carbonyl)piperazin-1-yl]nicotinate] | 6.28 |
| 6.21 | CCOC(=O)c1cnc(N2CCN(C(=O)NS(=O)(=O)c3ccccc3)CC2)c(Cl)c1 [Example 10, Ethyl 5-chloro-6-(4-{[(phenylsulfonyl)amino]carbonyl}piperazin-1-yl)nicotinate] | – |
